Reference: patent publication US4471115A, “Water soluble derivatives of cephalex and process for their preparation” (Neopharmed S.p.A., priority 1980, dated 1984)
Structures can show the parent of a compound that is named as a salt.

Tests used:
[1] = in vivo, po
pH of the water solution = format: physicochemical; conditions: water solution obtained in the preparation
Procedure: After about 10 minutes of stirring under the above conditions, a 50% solution of 14 g of lysine base was slowly added. The reaction mixture was little by little solubilized and the pH final value of the resulting solution was 7.5. The volume of the obtained solution was brought to the end value of 150 mls by adding cold distilled water. It was then sterile filtered and frozen in a prefreezer at -70° C. and finally lyophilized.

Solubility = format: physicochemical; conditions: for Solubility in alcohols: ethanol / absolute alcohols
[2] = Cephalexin microbiological title
[3] = Toxicity in the mouse (LD50); conditions: in vivo
Excerpt: (§1) Pharmacological and clinical tests have been carried out with the compounds of the invention and the results related to the lysine salt of 2-N-methylolcephalexin are hereinafter reported for illustrative purpose.

clinical = conditions: human, in vivo, po
[4] = Toxicity in the rat (LD50); conditions: in vivo, po, per os
Excerpt: as §1

[5] = well known; cited from earlier work

SMILES	Final pH of the resulting solution (pH of the water solution)	Solubility in alcohols (Solubility)	Solubility in water (Solubility)	Cephalexin microbiological title [2]	other results
CC1=C(C(=O)O)N2C(=O)[C@@H](NC(=O)[C@H](N)c3ccccc3)[C@H]2SC1 [substance B, cephalexin monohydrated]					Presence in the blood stream [1]: higher; Time after administration at which actives concentrations are detected [1]: more than 6 hours
CC1=C(C(=O)O)N2C(=O)[C@@H](NC(=O)[C@H](NCO)c3ccccc3)[C@H]2SC1 [Example 2, Sodium salt of 2-N-methylol-cephalexin]	7.1	little soluble in ethanol and absolute alcohols	highly water soluble	99 to 102 % of theoretical value	
CC1=C(C(=O)O)N2C(=O)[C@@H](NC(=O)[C@H](NCO)c3ccccc3)[C@H]2SC1 [Example 1, Lysine salt of 2-N-methylol-cephalexin]	7.5	little soluble in absoluble alcohols	cold soluble in water	99 to 100 % of theoretical value	LD50 ([3]; ip, intraperitoneal administration): 3100 mg/kg; LD50 ([3]; oral administration): > 4000 mg/kg; dose excreted at 24 h (clinical): 87%; LD50 [4]: > 4000 mg/kg
CC1=C(C(=O)O)N2C(=O)[C@@H](NC(=O)[C@H](N)c3ccccc3)[C@H]2SC1 [cephalexin, 7-(D-2-amino-2-phenylacetamido)-3-methyl-Δ^3-4-carboxylic acid]					Antibiotic utility [5]: wide spectrum antibiotic
